Reference: patent EP4737452A1, “NOVEL PYRIMIDINE DERIVATIVES” (Aigen Sciences Inc., priority 2023, dated 2025)

Key:
[1] = target: USP1 enzyme (Homo sapiens, UniProt O94782); assay: Biochemical analysis of USP1 enzyme activity (ubiquitin-rhodamine 110 deubiquitination, fluorescence); conditions: ubiquitin-rhodamine 110 substrate, 10 minutes pre-incubation, 30 minutes reaction at room temperature; read-out: Enzyme activity IC50 grade
Procedure: In this experimental example, the inhibitory effect of the compounds according to the present invention and the positive control compound on USP1 deubiquitinating activity was tested using a biochemical enzymatic assay. Ubiquitin-rhodamine 110 was used as a substrate for measuring deubiquitinating activity. This substrate compound is a substance in which rhodamine 110 is linked to the glycine residue at the C-terminus of ubiquitin by an amide bond. When this amide bond is cleaved by the deubiquitinating activity, a fluorescent signal is counted.
Subsequently, analytical buffer solution (50 mM hydroxyethylpiperazineethanesulfonic acid (HEPES) containing USP1 enzyme, 100 mM NaCl, 2 mM tris(2-carboxyethyl)phosphine (TCEP), and 100 µg/mL bovine serum albumin (BSA)) were added to each well of the plate and incubated at room temperature for 10 minutes. Subsequently, analytical y buffer solution containing ubiquitin-rhodamine 110 was added to each well and reacted at room temperature for 30 minutes.

[2] = test system: MDA-MB-436; assay: Cell survival analysis (CellTiter-Glo, 10 days culture); assay type: cell-based; conditions: Homo sapiens, 240 h; MDA-MB-436 cell line, cultured for 10 days, CellTiter-Glo; read-out: Cell growth IC50 grade
Procedure: In this experimental example, the cell growth inhibitory effect of compounds according to the present invention and positive control compounds in tumor cell lines was examined.
MDA-MB-436 (ATCC, #HTB-130) cell line was cultured in cell culture medium (Leibovitz's L-15 (GIBCO catalog no. 11415064) + 10 µg/mL insulin (Yeasen catalog no. 40112ES25) + 16 µg/mL glutathione (GIBCO catalog no. 25030-081) + 10% fetal bovine serum (FBS) (Excell Bio catalog no. FSP500)). 3,000 MDA-MB-436 cells were plated per well in a 96-well plate and cultured for 1 day at 37°C in 5% CO2. […] The cells were then cultured in a cell incubator for 10 days, and the cell culture medium containing the compound was replaced on the 5th day of culture. Cell survival rate was analyzed for luminescence using the Promega CellTiter-Glo Luminescent Cell Viability Assay Kit (Promega catalog number G7573), and the luminescence was measured using a PerkinElmer EnVision instrument. The percentage of cell growth inhibition rate was calculated from the measured relative luminescence unit (RLU) as follows. Inhibition rate = 1−((RLU compound−RLU blank)/(RLU control−RLU blank)) × 100 [formula]

[3] = test system: MDA-MB-436 cells; assay: BRCA1 synthetic lethality assay, colony formation with crystal violet staining, BRCA1 mutant cells; assay type: cell-based; conditions: cultured for 21 days
Procedure: (§1) In this experimental example, whether the compound according to the present invention had synthetic lethal efficacy with BRCA1 activity was tested by examining the colony formation of tumor cells. MDA-MB-436 cells (ATCC, #HTB-130), a triple-negative breast cancer cell line with reduced BRCA1 activity due to BRCA1 mutation, and MCF-10A cell line (ATCC, #CRL-10317), which has wild-type BRCA1/2 genes and is used as a model of normal breast cells, were cultured in their respective culture media (MDA-MB-436: L-15 +10 […] + 10% fetal bovine serum (FBS), MCF-10A: MEGM + 100 ng/mL cholera toxin), and then seeded in 6-well plates at a concentration of 10,000 cells per well for the MDA-MB-436 cells and 120 cells per well for the MCF-10A cell line. […] The crystal violet stained in the cells was extracted by treating the cells with 500 µL of 10% acetic acid for 20 minutes at room temperature for quantitative analysis. 150 µL of the extracted crystal violet was placed in two wells of a 96-well plate, and the absorbance was measured at 565 nm. The absorbance was quantified relative to the absorbance value of a blank sample containing only DMSO but not the compound of the present invention.

[4] = test system: MCF-10A cell line; assay: BRCA1 synthetic lethality assay, colony formation with crystal violet staining, BRCA1/2 wild-type cells; assay type: cell-based
Procedure: as §1

Chain of USP1 enzyme (O94782 whole entry): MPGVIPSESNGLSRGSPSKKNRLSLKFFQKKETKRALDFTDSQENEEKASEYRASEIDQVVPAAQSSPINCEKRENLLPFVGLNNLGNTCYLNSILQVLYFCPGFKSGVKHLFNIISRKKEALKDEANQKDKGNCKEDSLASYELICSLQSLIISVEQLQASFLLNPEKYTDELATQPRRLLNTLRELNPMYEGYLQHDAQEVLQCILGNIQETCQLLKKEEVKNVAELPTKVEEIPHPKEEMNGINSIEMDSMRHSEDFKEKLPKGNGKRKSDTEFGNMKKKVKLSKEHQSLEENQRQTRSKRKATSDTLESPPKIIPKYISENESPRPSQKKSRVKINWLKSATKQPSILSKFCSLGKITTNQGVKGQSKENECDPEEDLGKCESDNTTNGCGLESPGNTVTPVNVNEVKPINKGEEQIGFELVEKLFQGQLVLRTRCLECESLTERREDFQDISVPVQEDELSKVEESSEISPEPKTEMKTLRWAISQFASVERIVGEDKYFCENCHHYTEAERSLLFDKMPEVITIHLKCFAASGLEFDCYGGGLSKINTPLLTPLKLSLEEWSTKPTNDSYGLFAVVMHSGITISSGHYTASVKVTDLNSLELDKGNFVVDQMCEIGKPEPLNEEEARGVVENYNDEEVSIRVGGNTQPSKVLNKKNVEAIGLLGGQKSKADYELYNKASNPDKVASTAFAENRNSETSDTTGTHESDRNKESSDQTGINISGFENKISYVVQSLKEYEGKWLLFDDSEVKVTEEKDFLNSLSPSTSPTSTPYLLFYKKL
Chain of USP1 enzyme (Q8TAF3 whole entry partner): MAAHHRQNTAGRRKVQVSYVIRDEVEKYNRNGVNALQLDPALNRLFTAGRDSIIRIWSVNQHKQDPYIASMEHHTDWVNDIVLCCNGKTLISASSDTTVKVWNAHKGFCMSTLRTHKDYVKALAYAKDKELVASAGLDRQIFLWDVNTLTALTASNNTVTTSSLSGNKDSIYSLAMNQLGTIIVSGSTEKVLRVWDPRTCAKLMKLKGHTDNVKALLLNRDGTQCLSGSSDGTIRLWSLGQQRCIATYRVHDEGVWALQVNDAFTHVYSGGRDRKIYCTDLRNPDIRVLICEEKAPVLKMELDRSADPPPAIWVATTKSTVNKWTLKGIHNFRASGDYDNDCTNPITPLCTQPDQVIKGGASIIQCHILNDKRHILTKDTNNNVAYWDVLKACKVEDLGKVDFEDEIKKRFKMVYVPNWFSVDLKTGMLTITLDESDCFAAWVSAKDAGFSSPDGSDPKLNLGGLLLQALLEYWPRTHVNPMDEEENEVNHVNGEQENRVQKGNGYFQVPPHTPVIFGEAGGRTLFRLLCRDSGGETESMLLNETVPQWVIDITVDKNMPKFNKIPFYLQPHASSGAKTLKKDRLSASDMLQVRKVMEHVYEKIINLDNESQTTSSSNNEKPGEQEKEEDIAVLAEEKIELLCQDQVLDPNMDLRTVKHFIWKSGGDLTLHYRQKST

COc1cccc(C2CC2)c1-c1ncc(P(C)(C)=O)c(NCc2ccc(-c3nc(C(F)(F)F)cn3C)cc2)n1 [Example 1, (2-(2-cyclopropyl-6-methoxyphenyl)-4-((4-(1-methyl-4-(trifluoromethyl)-1H-imidazol-2-yl)benzyl)amino)pyrimidin-5-yl)dimethylphosphine oxide]
IC50 [1]: 50 to 100 nM | IC50 [2]: 100 to 500 nM | crystal violet extraction amount ([3]; MDA-MB-436 cells with reduced BRCA1 activity, absorbance at 565 nm relative to DMSO blank, Fig. 1 A): less than one-fifth of that of the DMSO blank | colony formation ([3]; MDA-MB-436 cells, compared with DMSO blank sample, Fig. 1 B): significantly reduced | crystal violet extraction amount ([4]; MCF-10A cells with wild-type BRCA1/2, cultured for 21 days, absorbance at 565 nm relative to DMSO blank, Fig. 1 A): no different from that of the DMSO blank | colony formation ([4]; MCF-10A cells, cultured for 21 days, compared with DMSO blank sample, Fig. 1 B): formed colonies at a normal level
